Patent publication US20260306491A1, “EGFR INHIBITOR FOR TREATING CANCERS COMPRISING ATYPICAL EGFR MUTATIONS” (ORIC Pharmaceuticals, Inc., priority 2023, published 2026)
Values joined by “and” are separate entries in the source; they are usually repeats but may differ in a detail not shown here. Identical values can stand only once.

Columns and labels:
EGFR_G719C = target: T1, EGFR_G719C (Homo sapiens, UniProt P00533, G719C); experiment: EGFR kinase activity (AQT0794 peptide, Sox fluorescence); assay type: biochemical; details: 1 mM ATP, 5.0 nM enzyme, room temperature
T1 construct: purchased SignalChem E10-12FG
Method: (§1) Compound I was dissolved in DMSO to generate a 10 mM stock solution. Dosing solutions for biochemical assays were prepared by serial dilution in DMSO followed by dilution in assay buffers as described in the experimental procedures. Stock formulations were stored at −80° C. and dosing solutions were prepared for each experiment immediately prior to use.
(§2) Activity of human recombinant EGFR wildtype and mutant proteins was measured by the phosphorylation of a peptide substate via chelation-enhanced fluorescence using the sulfonamido-oxine (Sox) chromophore detection format. Compound I was solubilized in DMSO. 16-point half log titrations in 100% DMSO were carried out by a Bravo liquid handler (Agilent) in a 384-well polypropylene plate (Greiner Cat. #781201). Using the Bravo liquid handler, intermediate 1:10 dilutions in a 384-well polypropylene plate were created in assay buffer. For the enzymatic reactions, 5 μL from the intermediate compound dilution plate was transferred to a low volume 384 well, black flat-bottom polystyrene microplate (Greiner Cat. #784076). A separate plate was generated for each enzyme. Next, 5 μL of a 4× ATP/AQT0794 working solution was added to the assay plate. Finally, 10 μL of 2× enzyme was added to start the reactions. The plate was sealed with a PerkinElmer TopSeal-A Plus plate seal (Cat. #6050185) and read at excitation (360 nm) and emission (492 nm) in continuous kinetic mode every 2 minutes for 3 hours at room temperature. Reactions were performed in 50 mM HEPES, pH 7.5, 1 mM ATP, 1.0 mM DTT, 0.015% Brij-35, 0.01% BSA, 1.0 mM EGTA, 10 mM MgCl2, 10 μM EGFR peptide substrate probe from AssayQuant (Cat. #AQT0794) plus recombinant EGFR protein (Table 1). The final DMSO concentration was 2.5%.
(§3) Real-time continuous kinetic data were loaded into Dotmatics software where slopes were calculated, converted to % inhibitions and IC50s were generated using the four-parameter non-linear regression curve fit. Reactions lacking enzymes were used as 100% inhibition controls. After addition of recombinant EGFR and its substrates ATP and AQT0794, the activity of EGFR was measured by quantification of the phosphorylation of the AQT0794 peptide substate via chelation-enhanced fluorescence using the sulfonamido-oxine (Sox) chromophore detection format with diminishing signal indicative of inhibition of EGFR activity.

EGFR_d746-750 G724S = target: T2, EGFR_d746-750 G724S (Homo sapiens, UniProt P00533, DEL746-750/G724S); experiment: as above; assay type: biochemical; details: 1 mM ATP, 2.0 nM enzyme, room temperature
T2 construct: purchased SignalChem E10-122D3G
T2 sequence (P00533 with tags, fused parts or gaps G724S/DEL746-750): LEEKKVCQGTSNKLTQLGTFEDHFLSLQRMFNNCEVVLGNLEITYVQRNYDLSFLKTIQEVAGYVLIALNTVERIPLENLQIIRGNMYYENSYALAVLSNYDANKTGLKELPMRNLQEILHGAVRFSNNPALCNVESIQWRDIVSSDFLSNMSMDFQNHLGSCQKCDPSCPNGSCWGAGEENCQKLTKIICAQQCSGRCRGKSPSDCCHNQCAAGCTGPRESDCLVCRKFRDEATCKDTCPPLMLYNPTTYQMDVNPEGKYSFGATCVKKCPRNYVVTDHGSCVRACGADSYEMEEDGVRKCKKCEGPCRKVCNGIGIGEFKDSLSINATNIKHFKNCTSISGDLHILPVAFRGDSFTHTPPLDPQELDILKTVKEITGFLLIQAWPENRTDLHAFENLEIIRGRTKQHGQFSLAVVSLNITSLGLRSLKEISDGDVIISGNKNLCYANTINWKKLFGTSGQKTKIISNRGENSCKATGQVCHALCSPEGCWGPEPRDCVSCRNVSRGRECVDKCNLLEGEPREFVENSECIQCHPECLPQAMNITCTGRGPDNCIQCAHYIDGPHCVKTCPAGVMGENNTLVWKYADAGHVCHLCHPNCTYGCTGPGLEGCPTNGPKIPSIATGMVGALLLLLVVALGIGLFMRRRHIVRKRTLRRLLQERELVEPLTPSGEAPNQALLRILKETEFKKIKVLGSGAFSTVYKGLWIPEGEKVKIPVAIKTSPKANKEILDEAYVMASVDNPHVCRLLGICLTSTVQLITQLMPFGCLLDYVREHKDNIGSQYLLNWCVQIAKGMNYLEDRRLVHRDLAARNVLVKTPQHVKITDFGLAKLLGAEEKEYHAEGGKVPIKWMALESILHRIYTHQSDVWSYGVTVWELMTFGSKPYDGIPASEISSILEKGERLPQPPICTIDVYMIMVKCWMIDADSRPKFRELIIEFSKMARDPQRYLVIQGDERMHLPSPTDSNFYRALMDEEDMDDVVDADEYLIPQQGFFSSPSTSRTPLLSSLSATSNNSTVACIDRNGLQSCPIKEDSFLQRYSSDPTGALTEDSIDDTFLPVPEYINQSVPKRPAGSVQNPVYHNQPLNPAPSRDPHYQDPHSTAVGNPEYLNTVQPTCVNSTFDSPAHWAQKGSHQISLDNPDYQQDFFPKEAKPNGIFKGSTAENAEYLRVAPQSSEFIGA
Method: as §1, §2, §3

EGFR_d746-750 S768I = target: T3, EGFR_d746-750 S768I (Homo sapiens, UniProt P00533, DEL746-750/S768I); experiment: as above; assay type: biochemical; details: 1 mM ATP, 2.0 nM enzyme, room temperature
T3 construct: purchased SignalChem E10-122B3G
Method: as §1, §2, §3

EGFR_G719S = target: T4, EGFR_G719S (Homo sapiens, UniProt P00533, G719S); experiment: as above; assay type: biochemical; details: 1 mM ATP, 1.0 nM enzyme, room temperature
T4 construct: purchased SignalChem E10-12HG
T4 sequence (P00533 25-1210 G719S): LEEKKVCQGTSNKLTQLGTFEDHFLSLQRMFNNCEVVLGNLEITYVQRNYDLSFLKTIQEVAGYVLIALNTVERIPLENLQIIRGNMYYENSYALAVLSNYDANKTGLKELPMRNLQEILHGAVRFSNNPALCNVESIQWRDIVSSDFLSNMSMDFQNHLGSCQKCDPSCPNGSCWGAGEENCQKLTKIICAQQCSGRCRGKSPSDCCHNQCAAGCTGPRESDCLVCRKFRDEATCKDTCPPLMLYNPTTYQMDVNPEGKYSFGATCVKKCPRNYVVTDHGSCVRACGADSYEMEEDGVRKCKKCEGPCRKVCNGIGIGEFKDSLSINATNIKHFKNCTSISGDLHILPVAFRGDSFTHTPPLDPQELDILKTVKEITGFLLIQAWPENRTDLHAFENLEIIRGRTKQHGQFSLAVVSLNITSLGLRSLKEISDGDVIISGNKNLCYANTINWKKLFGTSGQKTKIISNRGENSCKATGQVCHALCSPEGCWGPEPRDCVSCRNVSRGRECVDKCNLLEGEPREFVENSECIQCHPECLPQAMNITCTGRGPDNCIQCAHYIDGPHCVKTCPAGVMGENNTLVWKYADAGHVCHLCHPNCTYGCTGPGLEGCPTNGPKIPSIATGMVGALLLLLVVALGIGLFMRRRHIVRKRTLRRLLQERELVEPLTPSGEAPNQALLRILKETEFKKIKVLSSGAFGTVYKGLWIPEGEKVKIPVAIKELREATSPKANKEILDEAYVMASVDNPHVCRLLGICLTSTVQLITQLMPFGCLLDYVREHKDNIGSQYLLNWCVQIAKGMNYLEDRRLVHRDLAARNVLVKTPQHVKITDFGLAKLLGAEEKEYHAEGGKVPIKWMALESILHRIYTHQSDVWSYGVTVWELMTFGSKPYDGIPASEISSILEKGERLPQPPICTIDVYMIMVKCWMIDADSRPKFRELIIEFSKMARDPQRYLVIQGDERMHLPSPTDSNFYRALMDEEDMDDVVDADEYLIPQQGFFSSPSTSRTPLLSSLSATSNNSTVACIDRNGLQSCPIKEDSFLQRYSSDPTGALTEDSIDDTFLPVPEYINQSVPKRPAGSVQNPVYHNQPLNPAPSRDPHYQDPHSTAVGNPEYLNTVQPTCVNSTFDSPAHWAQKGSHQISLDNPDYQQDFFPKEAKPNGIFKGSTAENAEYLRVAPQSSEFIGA
Method: as §1, §2, §3

EGFR_L747S = target: T5, EGFR_L747S (Homo sapiens, UniProt P00533, L747S); experiment: as above; assay type: biochemical; details: 1 mM ATP, 0.5 nM enzyme, room temperature
T5 construct: purchased SignalChem E10-122Y2G
T5 sequence (P00533 25-1210 L747S): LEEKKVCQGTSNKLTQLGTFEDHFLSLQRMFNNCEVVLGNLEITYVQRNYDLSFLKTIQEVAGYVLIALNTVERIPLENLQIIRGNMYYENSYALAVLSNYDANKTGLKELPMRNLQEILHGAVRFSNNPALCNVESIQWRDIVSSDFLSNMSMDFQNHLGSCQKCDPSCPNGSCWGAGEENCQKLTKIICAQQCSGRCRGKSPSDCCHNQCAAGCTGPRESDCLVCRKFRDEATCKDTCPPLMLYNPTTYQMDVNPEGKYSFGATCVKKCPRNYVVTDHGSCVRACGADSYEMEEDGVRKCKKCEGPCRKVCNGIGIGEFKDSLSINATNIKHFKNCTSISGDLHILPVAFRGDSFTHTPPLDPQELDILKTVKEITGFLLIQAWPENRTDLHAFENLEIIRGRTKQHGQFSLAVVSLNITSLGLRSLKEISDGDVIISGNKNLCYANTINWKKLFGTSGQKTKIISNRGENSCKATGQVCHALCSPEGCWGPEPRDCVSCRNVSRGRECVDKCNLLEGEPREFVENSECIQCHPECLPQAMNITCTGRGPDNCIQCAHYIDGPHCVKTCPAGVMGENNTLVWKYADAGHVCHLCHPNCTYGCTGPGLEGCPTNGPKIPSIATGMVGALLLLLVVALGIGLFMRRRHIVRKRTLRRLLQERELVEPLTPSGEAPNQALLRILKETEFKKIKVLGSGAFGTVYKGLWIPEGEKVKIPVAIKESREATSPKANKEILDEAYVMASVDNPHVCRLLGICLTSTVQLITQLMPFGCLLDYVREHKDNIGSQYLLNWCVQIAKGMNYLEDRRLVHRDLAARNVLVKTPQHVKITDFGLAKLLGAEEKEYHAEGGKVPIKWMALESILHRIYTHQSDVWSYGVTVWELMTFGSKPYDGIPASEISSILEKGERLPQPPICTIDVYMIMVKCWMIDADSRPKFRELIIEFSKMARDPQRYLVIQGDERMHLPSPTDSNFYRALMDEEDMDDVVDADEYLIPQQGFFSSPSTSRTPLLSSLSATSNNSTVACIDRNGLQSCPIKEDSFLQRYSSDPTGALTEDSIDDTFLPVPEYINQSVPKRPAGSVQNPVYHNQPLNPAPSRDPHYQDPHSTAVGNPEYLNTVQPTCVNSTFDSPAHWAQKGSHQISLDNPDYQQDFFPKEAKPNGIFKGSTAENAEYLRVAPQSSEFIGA
Method: as §1, §2, §3

EGFR_L792H = target: T6, EGFR_L792H (Homo sapiens, UniProt P00533, L792H); experiment: as above; assay type: biochemical; details: 1 mM ATP, 1.0 nM enzyme, room temperature
T6 construct: purchased SignalChem E10-122J2G
Method: as §1, §2, §3

EGFR WT = target: T7, EGFR WT (Homo sapiens, UniProt P00533); experiment: as above; assay type: biochemical; details: 1 mM ATP, 2.0 nM enzyme, room temperature
T7 construct: purchased ThermoFisher PV3872
T7 sequence (P00533 25-1210): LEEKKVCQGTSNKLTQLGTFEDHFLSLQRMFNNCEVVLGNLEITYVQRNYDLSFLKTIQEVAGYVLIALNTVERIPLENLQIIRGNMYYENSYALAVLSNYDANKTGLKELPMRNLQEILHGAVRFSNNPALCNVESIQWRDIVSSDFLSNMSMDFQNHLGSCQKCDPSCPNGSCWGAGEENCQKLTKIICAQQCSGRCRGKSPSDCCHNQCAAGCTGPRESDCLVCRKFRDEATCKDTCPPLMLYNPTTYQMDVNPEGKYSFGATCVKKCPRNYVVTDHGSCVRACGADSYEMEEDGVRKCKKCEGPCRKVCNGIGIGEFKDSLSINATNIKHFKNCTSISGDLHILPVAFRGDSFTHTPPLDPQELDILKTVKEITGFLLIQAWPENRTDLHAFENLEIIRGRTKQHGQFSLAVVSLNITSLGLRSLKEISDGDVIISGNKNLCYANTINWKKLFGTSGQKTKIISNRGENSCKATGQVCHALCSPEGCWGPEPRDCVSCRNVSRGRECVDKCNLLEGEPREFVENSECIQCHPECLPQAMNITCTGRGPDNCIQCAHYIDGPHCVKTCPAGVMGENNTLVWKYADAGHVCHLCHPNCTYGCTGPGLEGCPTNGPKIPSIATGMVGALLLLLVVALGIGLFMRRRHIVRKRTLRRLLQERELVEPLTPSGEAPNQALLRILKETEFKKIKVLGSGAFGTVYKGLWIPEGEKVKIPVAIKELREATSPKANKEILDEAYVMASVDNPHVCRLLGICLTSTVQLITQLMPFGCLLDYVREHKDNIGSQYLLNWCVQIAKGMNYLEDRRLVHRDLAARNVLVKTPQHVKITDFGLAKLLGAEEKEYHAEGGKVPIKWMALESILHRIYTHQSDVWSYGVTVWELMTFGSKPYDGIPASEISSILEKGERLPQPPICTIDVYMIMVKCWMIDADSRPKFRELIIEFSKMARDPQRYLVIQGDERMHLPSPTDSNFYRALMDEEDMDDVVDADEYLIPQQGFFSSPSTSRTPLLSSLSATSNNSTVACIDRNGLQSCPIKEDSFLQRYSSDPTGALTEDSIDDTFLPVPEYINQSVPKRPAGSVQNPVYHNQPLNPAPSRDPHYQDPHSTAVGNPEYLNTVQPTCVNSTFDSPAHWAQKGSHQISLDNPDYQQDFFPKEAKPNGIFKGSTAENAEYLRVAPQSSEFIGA
Method: as §1, §2, §3

EGFR_L718Q = target: T8, EGFR_L718Q (Homo sapiens, UniProt P00533, L718Q); experiment: as above; assay type: biochemical; details: 1 mM ATP, 2.0 nM enzyme, room temperature
T8 construct: purchased SignalChem E10-122G2G
Method: as §1, §2, §3

[1] = tested on: HER2 exon 20 insertion mutated NSCLC; experiment: Clinical study: duration of treatment and antitumor response, HER2 exon 20 insertion mutated NSCLC (Example 10); assay type: in vivo, human
Method: A clinical study was conducted using Compound I in human subjects having non-small cell lung cancer (NSCLC) comprising EGFR exon 20 insertion mutations, HER2 exon 20 insertion mutations, or HER2 amplification or overexpression. A total of 50 human subjects having non-small cell lung cancer comprising one or more EGFR exon 20 insertion mutations, HER2 exon 20 insertion mutations, or HER2 amplification or overexpression were enrolled in the study as of Jul. 31, 2023 with data collected as of Sep. 26, 2023. The subjects were enrolled into one of ten dosing cohorts that were each orally administered Compound I in the form of a hemifumarate salt as shown in Table 13 (QD=once per day; BID=twice per day).
Duration of treatment and antitumor responses achieved in evaluable subjects with HER2 exon 20 insertion mutate NSCLC (dose level greater than or equal to 45 mg TDD and at least one post-baseline tumor assessment) who were administered Compound I in the form of a hemifumarate salt are set forth in Tables 21 and 22, respectively.

C=CC(=O)Nc1cc(Nc2cc(N3OCC[C@@H]3c3cc(F)cc(F)c3)ncn2)c(OC)cc1N1CCC(N2CCN(C3CC3)CC2)CC1 [Compound I, N-[2-[4-(4-cyclopropyl-1-piperazinyl)-1-piperidinyl]-5-[[6-[(3R)-3-(3,5-difluorophenyl)-2-isoxazolidinyl]-4-pyrimidinyl]amino]-4-methoxyphenyl]-2-propenamide]
IC50 (EGFR_G719C): 0.6 nM
IC50 (EGFR_d746-750 G724S): 3.5 nM
IC50 (EGFR_d746-750 S768I): 1 nM
IC50 (EGFR_G719S): 0.9 nM
IC50 (EGFR_L747S): 1.5 nM
IC50 (EGFR_L792H): 16 nM
IC50 (EGFR WT): 2.3 ± 1.1 nM
IC50 (EGFR_L718Q): 3.7 nM
Duration of treatment ([1]; oral hemifumarate, dosing cohort 30 BID, one value per subject): 79 days and Ongoing (3×) and 54 days
Duration of treatment ([1]; oral hemifumarate, dosing cohort 45 QD, one value per subject): Ongoing
Duration of treatment ([1]; oral hemifumarate, dosing cohort 60 QD, one value per subject): 28 days
Duration of treatment ([1]; oral hemifumarate, dosing cohort 75 QD, one value per subject): 179 days and 47 days
Duration of treatment ([1]; oral hemifumarate, dosing cohort 90 QD, one value per subject): Ongoing
Best percent change in the sum of target lesions from baseline ([1]; oral hemifumarate, ≥45 mg TDD, one value per subject (subjects 1 to 13)): 0% (2×) and −3% and −19% and −31% and −33% and −34% and −55% and −100% and 31% and 11% and 9% and 5%
Duration of treatment ([1]; po): 2 days
